Reference: patent US12509420B2, “Compound as a UBR box domain ligand” (AUTOTAC INC., priority 2020, dated 2025)
Peptide text beside a SMILES is read from it. * marks the point of attachment. Cbz = O=C(OCc1ccccc1)*

Columns and labels:
UBR1 [1] = assay: Inhibition of R-nsP4 degradation by in vitro transcription/translation method; format: biochemical; details: compound 1 uM, 30° C. for 40 minutes, DHFR-Ub-R-nsP4 plasmid, compared to the control
Protocol: A TnT® Quick Coupled Transcription/Translation System kit was used to confirm the R-nsP4 expression of the compounds. After a pre-mix was made using Transcend Biotin-Lysyl-tRNA, methionine, bestatin, a TnTquick Master mix and a DHFR-Ub-R-nsP4 plasmid, the pre-mix was mixed with a compound (1 uM). After each sample was reacted at 30° C. for 40 minutes, a 5×SDS loading dye was added thereto. After the resulting mixture was reacted at 95° C. for 2 minutes, 5 uL was taken and aliquoted into each well of an acrylamide gel, and then an immunoblotting method was performed, and the experimental results are illustrated in [FIG. 2]. For an in vitro transcription/translation method, a representative experiment was schematized from three or more independent experiments.

UBR1 [2] = target: T1, UBR1 (Rattus norvegicus, UniProt A0A8I5ZK69); assay: Inhibition of muscle cell actin degradation by immunoblotting (L6 cells); format: cell-based; details: compound 5 uM alone, 24 hours, immunoblot
T1 construct: endogenous in cells; host or cells: L6 rat muscle-derived cells
T1 sequence (A0A8I5ZK69 1-1749): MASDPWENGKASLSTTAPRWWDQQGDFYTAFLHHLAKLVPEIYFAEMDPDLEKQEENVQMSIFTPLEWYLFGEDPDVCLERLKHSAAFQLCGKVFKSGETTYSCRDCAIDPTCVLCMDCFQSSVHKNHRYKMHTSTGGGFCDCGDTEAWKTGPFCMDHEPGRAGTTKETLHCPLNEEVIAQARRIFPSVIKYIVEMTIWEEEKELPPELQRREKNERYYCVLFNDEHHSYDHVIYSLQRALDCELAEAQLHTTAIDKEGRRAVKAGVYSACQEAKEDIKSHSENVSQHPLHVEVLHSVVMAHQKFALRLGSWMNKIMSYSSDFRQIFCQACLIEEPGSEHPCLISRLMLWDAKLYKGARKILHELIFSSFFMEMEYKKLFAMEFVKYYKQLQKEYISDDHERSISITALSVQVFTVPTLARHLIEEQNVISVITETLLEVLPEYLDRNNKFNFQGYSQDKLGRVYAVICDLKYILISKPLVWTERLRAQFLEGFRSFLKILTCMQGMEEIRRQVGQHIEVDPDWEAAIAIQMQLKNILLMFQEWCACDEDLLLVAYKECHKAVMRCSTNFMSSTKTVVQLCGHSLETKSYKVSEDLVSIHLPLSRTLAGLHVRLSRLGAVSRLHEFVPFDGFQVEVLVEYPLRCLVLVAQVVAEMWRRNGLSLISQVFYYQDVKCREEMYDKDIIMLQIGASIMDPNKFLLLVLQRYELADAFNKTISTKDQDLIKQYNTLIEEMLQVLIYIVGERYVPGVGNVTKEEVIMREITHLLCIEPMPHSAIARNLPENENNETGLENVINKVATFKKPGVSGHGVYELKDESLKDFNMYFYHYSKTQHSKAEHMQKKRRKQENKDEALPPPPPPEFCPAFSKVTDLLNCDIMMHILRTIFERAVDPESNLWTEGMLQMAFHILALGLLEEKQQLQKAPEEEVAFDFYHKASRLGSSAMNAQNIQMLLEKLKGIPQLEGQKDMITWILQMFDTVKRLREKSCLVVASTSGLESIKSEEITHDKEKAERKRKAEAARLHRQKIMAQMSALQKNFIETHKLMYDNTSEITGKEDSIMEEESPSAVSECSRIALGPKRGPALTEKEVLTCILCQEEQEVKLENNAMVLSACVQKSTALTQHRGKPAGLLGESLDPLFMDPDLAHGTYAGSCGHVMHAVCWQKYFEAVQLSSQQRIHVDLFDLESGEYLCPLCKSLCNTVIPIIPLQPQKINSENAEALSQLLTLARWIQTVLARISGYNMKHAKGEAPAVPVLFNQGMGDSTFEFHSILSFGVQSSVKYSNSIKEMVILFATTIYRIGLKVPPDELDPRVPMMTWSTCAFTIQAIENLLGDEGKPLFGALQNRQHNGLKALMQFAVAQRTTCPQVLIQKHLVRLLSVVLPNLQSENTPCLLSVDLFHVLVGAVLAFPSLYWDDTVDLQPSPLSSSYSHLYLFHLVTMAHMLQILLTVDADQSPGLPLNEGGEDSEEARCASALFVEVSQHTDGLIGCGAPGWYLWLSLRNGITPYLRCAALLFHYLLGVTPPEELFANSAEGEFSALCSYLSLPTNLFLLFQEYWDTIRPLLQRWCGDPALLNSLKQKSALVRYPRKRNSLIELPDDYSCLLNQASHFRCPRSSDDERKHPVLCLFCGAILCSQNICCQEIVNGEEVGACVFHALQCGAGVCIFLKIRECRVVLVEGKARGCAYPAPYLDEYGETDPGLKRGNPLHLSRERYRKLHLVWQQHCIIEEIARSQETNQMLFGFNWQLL
Protocol: To evaluate the actin degradation of compounds in muscle cells, a L6 cell line, which is a rat muscle-derived cell, was cultured using a DMEM medium containing 10% FBS and 1% streptomycin/penicillin in an incubator in which 5% carbon dioxide was maintained. In order to measure the UBR1 binding strength according to the treatment with a representative compound selected from the present compounds, cells were aliquoted into a 12-well plate. The cells were additionally cultured for 24 hours so as to be completely attached to the surface of the plate. […] To extract proteins from the collected cells, 50 uL of a lysis buffer (20 mM Tris, pH 7.4, 150 mM NaCl, 1% Triton-X-100, 2 mM NaF, 2 mM EDTA, 2 mM b-glycerophosphate, 5 mM sodium orthovanadate, 1 mM PMSF, leupeptin, aprotenin) was injected into each sample, and the cells were lysed. A sample buffer was added to each sample based on the measured total protein concentration, and the mixture was reacted at 100° C. for 5 minutes. After 5 uL was taken from the completely reacted sample and aliquoted into each well of an acrylamide gel, an immunoblotting method was performed, and the experimental results were illustrated in [FIG. 3]. For the immunoblotting method, a representative experiment was schematized from three or more independent experiments.

L6 cell line = assay: Immunoblotting of muscle actin levels in L6 cells after MG132 treatment; format: cell-based, rat; details: MG132 10 uM alone, 24 hours, immunoblot, compared to a control
Protocol: A L6 cell line, which is a rat muscle-derived cell, was cultured using a DMEM medium containing 10% FBS and 1% streptomycin/penicillin in an incubator in which 5% carbon dioxide was maintained, and cells were aliquoted into a 12-well plate after the culture. The cells were additionally cultured for 24 hours so as to be completely attached to the surface of the plate. To confirm whether MG132 increased UBR1 binding, cells were collected after treatment with MG132 (10 uM) alone for 24 hours. To extract proteins from the collected cells, 50 uL of a lysis buffer (20 mM Tris, pH 7.4, 150 mM NaCl, 1% Triton-X-100, 2 mM NaF, 2 mM EDTA, 2 mM b-glycerophosphate, 5 mM sodium orthovanadate, 1 mM PMSF, leupeptin, aprotenin) was injected into each sample, and the cells were lysed. A sample buffer was added to each sample based on the measured total protein concentration, and the mixture was reacted at 100° C. for 5 minutes. After 5 uL was taken from the completely reacted sample and aliquoted into each well of an acrylamide gel, an immunoblotting method was performed, and the experimental results are illustrated in [FIG. 1].
For the immunoblotting method, a representative experiment was schematized from three or more independent experiments.
Referring to FIG. 1, it was confirmed that the levels of ACTA1, ACTC1, and ACTG2 were increased by MG132 compared to a control. Further, it was confirmed that the levels of ACTA1 and ACTG2 were increased when a UBR protein was knocked down. That is, it could be confirmed that muscle actin is an Arg/N-degron pathway substrate.

Structure (SMILES): COCCCCC(=O)Nc1cc(C(N)=O)ccc1Cl [Compound 2, 4-chloro-3-(5-methoxypentanamido)benzamide]
- level of R-nsP4 (UBR1 [1]): increased
- level of ACTA1 (UBR1 [2]): further increased

Structure (SMILES): COCCCCC(=O)Nc1cc(C(C)=O)ccc1Cl [Compound 1, N-(5-acetyl-2-chlorophenyl)-5-methoxypentanamide]
- level of R-nsP4 (UBR1 [1]): increased
- level of ACTA1 (UBR1 [2]): further increased

Structure (SMILES): CC(C)C[C@@H](C=O)NC(=O)[C@H](CC(C)C)NC(=O)[C@H](CC(C)C)NC(=O)OCc1ccccc1 [MG132] (Cbz-Leu-Leu-Leu-aldehyde)
- level of ACTA1 (L6 cell line): increased
- level of ACTC1 (L6 cell line): increased
- level of ACTG2 (L6 cell line): increased
